The nature of data set [1]: Inhibition of URAT1 R477K mutant (unknown origin)-mediated 14C-uric acid uptake expressed in HEK293 cells using 14C-uric acid as substrate preincubated for 30 mins followed by substrate addition and measured after 15 mins by liquid scintillation counting analysis. The note with it: Homo sapiens. The class given is cell-based.
Data set [2] addresses T1, Solute carrier family 22 member 12 (Homo sapiens, UniProt Q96S37).
T1 sequence (Q96S37 whole entry): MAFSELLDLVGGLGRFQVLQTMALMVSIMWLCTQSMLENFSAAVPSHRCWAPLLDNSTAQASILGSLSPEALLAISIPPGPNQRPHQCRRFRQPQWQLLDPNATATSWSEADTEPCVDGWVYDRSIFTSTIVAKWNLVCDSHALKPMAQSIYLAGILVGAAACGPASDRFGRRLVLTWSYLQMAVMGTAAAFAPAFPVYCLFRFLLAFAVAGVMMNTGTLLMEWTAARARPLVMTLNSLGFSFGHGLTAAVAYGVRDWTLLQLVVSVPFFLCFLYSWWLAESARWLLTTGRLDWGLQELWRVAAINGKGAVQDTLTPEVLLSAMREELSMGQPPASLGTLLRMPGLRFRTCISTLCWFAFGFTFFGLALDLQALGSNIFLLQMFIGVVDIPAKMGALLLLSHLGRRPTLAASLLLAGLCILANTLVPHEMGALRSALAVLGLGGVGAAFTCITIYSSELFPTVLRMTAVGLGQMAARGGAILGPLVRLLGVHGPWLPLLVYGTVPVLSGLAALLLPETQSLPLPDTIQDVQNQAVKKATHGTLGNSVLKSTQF
As to the kind of experiment: Inhibition of URAT1 (unknown origin)-mediated 14C-uric acid uptake expressed in HEK293 cells using 14C-uric acid as substrate preincubated for 30 mins followed by substrate addition and measured after 15 mins by liquid scintillation counting analysis. The class given is cell-based.

The nature of data set [3]: Inhibition of URAT1 F241Y mutant (unknown origin)-mediated 14C-uric acid uptake expressed in HEK293 cells using 14C-uric acid as substrate preincubated for 30 mins followed by substrate addition and measured after 15 mins by liquid scintillation counting analysis. The class given is cell-based. The note with it: Homo sapiens.
Data set [4] is described as follows: MRT (0 to infinity) in Sprague-Dawley rat at 5 mg/kg, iv by LC-MS/MS analysis. The data set is classed as ADME, organism-based. To be noted: in vivo.
Data set [5] in a line: Inhibition of URAT1 R487K mutant (unknown origin)-mediated 14C-uric acid uptake expressed in HEK293 cells using 14C-uric acid as substrate preincubated for 30 mins followed by substrate addition and measured after 15 mins by liquid scintillation counting analysis. The data set is classed as cell-based. To be noted: Homo sapiens.
Data set [6] can be described thus: Cytotoxicity against human HK-2 cells assessed as reduction in cell viability incubated for 24 hrs by MTT assay. The class given is toxicity, cell-based.
Data set [7] in a line: Cytotoxicity against human HK-2 cells assessed as reduction in cell viability incubated for 48 hrs by MTT assay. The data set is classed as toxicity, cell-based.
Data set [8] is described as follows: Inhibition of URAT1 F365Y mutant (unknown origin)-mediated 14C-uric acid uptake expressed in HEK293 cells using 14C-uric acid as substrate preincubated for 30 mins followed by substrate addition and measured after 15 mins by liquid scintillation counting analysis. The class given is cell-based. To be noted: Homo sapiens.
Data set [9] can be described thus: Renal toxicity in xanthine and potassium oxonate-induced acute hyperuricemia Kunming mouse model assessed as serum creatinine level at 10 mg/kg, po measured after 3 hrs. To be noted: in vivo. The data set is classed as organism-based.
A short description of data set [10]: Tmax in Sprague-Dawley rat at 5 mg/kg, po measured upto 36 hrs by LC-MS/MS analysis. The data set is classed as ADME, organism-based. To be noted: in vivo.
Data set [11] in a line: Inhibition of URAT1 I481M mutant (unknown origin)-mediated 14C-uric acid uptake expressed in HEK293 cells using 14C-uric acid as substrate preincubated for 30 mins followed by substrate addition and measured after 15 mins by liquid scintillation counting analysis. The data set is classed as cell-based. The note with it: Homo sapiens.
The next data set relates to Mus musculus. As to the kind of experiment: Anti-hyperuricemic activity against xanthine and potassium oxonate-induced acute hyperuricemia Kunming mouse model assessed as increase in urine uric acid concentration at 10 mg/kg, po measured for 24 hrs. The class given is functional.
A short description of data set [12]: Half life in Sprague-Dawley rat at 5 mg/kg, po measured upto 36 hrs by LC-MS/MS analysis. The data set is classed as ADME, organism-based. To be noted: in vivo.
In data set [13] the target is T2, Solute carrier family 2, facilitated glucose transporter member 9 (Homo sapiens) (UniProt Q9NRM0).
T2 sequence (whole entry): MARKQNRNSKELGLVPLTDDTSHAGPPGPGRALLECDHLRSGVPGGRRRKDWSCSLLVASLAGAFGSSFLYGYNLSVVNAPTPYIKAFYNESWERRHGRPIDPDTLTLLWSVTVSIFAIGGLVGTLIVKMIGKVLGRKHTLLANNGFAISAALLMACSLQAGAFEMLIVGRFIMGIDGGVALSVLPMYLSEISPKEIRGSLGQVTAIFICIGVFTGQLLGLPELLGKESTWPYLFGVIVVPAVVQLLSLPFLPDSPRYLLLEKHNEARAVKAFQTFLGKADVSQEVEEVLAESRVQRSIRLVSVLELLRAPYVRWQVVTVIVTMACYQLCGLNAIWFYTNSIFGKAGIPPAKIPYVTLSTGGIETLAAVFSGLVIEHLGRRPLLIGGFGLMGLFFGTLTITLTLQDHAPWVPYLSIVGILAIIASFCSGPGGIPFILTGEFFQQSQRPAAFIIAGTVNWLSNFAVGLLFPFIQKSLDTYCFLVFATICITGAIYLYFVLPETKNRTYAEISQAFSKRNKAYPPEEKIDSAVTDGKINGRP
As to the kind of experiment: Inhibition of GLUT9 (unknown origin) expressed in HEK293T cells assessed as inhibition of uric acid-induced current at 10 uM by whole cell patch clamp technique. The class given is cell-based. Background: Patch clamp records ionic current or voltage across a cell membrane.

The target in data set [14] is T3, Solute carrier family 22 member 6 (Homo sapiens, UniProt Q4U2R8).
T3 sequence (Q4U2R8 whole entry): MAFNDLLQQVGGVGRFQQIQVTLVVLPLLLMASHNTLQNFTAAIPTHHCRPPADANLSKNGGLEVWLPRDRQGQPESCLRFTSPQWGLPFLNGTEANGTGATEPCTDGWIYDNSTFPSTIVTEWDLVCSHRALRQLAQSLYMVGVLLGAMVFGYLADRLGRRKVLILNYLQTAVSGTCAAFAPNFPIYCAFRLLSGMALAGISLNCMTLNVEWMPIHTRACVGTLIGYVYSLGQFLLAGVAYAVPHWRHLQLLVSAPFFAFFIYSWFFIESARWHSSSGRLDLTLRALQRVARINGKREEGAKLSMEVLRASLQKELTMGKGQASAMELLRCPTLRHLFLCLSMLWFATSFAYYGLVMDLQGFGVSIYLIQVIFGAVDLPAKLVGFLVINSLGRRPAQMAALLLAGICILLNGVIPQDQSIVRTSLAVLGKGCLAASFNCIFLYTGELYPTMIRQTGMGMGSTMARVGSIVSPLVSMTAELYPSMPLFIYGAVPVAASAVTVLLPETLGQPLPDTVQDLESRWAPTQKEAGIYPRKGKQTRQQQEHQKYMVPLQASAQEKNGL
As to the kind of experiment: Inhibition of OAT1 (unknown origin) expressed in HEK293 cells assessed as inhibition of 6-CFL uptake preincubated for 30 mins followed by incubation with 6-CFL and measured after 15 mins by fluorescence based analysis. The class given is toxicity, cell-based.

Data set [15] is described as follows: AUC (0 to infinity) in Sprague-Dawley rat at 5 mg/kg, iv by LC-MS/MS analysis. The class given is ADME, organism-based. On the set-up: time infinity, dose 5 mg/kg, route iv. The note with it: in vivo.
Data set [16] can be described thus: Cmax in Sprague-Dawley rat at 5 mg/kg, po measured upto 36 hrs by LC-MS/MS analysis. The data set is classed as ADME, organism-based. Further details: time < 36 hrs, dose 5 mg/kg, route po. To be noted: in vivo.

With `N#Cc1ccc(Nc2cnccc2SCc2ccccc2C(=O)[O-])c2ccccc12.[Na+]`, the IC50 in data set [1] worked out at 2.17 µM; in [2], 0.24 µM; in [3] it was 0.31 µM; in data set [5], 1.89 µM; in [8] it was 1.57 µM; in [11] it was 0.31 µM. Further, the 50% inhibitory concentration (IC50) in [14] amounted to 32.1 µM. Moreover, in data set [4], the mean residence time (MRT inf) came out at 4.8 h. For the same compound, the IC50 at 24 h in [6] came to 208 µM. Besides, the IC50 at 48 h in data set [7] is 167 µM. Besides, the values for the Activity result (in [9]; in the data set with Mus musculus) were “Non-Toxic” and 2444.24 µM, respectively. Also, in data set [10], the Tmax is 0.5 h. In [12], this compound had a half-life of 5.14 h. For the same compound, in [13], the inhibition worked out at 51%. In addition, the area under the curve AUC(0-inf) in data set [15] was determined as 18500 ng·h/mL. In data set [16], this compound gave a Cmax of 7650 ng/mL.

By IC50 is commonly meant the concentration at which inhibition is half-maximal. A word on the MRT inf: it is a mean duration of stay, worked out from the concentration-time curve. Broadly, the Tmax is the time at which the peak concentration occurs. Broadly, the half-life is the time needed for the level to fall by half in the phase considered. Read a low half-life as fast loss. As usually defined, the inhibition is the change of the read-out against control, counted positive when it falls. One may read the AUC(0-inf) as the area under the concentration-time curve extrapolated to infinity. Lower therefore signals less exposure. For orientation: Cmax means the maximum level reached in the sampled fluid or tissue.

The values are drawn from ChEMBL document CHEMBL5154691, “Discovery of novel verinurad analogs as dual inhibitors of URAT1 and GLUT9 with improved Druggability for the treatment of hyperuricemia” (Eur J Med Chem, 2022).
